In US8729032B2, “Self-assembling peptide and peptide gel with high strength” (Menicon Co., Ltd., priority 2009, dated 2014):

Assays:
mouse myoblasts (L6) = assay: Cell culture in peptide gel, DNA quantification (CyQUANT), cell growth rate; assay type: cell-based; settings: rate immediately after start = 100%, peptide 0.4 w/v %, average of n=3
Source text: A cell suspension including mouse myoblasts (L6) at a cell concentration of 2.0×10^6 cells/ml and a peptide aqueous solution including the modified peptide 1 at 1.0 w/v % were mixed with each other at a volume ratio of 3:2 (cell suspension:peptide aqueous solution). The resultant mixture (cell concentration: 1.2×10^6 cells/ml, peptide concentration: 0.4 w/v %) was charged into a Cell Culture Insert (product number “353096” manufactured by BD Falcon) and left to stand still at room temperature for approximately 1 minute to form a peptide gel. The gel in the Cell Culture Insert was directly set in wells of a 24-well plate for tissue culture (product number “3820-024” manufactured by AGC TECHNO GLASS CO., LTD.) with 1 mL of a DMEM medium containing 10% calf serum. Next, cell culture was carried out in an incubator at 37° C. in the presence of 5% CO2. Medium exchange was carried out only once on Day 2 after the start of culture. The gel was collected on Days 1, 2, and 4 after the start of culture, and DNA quantification was carried out using a trade name “CyQUANT (registered trademark) Cell Proliferation Assay Kit*for cells in culture**1000 assays*” (product number “C7026” manufactured by Invitrogen), to thereby calculate cell growth rates. The cell growth rates on Days 1, 2, and 4 after the start of culture were 150%, 180%, and 310%, respectively, when the cell growth rate immediately after the start of culture was defined as 100%, that is, the number of cells increased in accordance with a lapse of days (an average of n=3 was used for the calculation results).

mouse NIH3T3 cells = assay: Cell culture in autoclaved peptide gel, Cell Counting Kit 8, cell growth rate; assay type: cell-based; settings: Day 0 (Hour 2), Day 1, Day 3, Day 5; gel from 0.5 w/v % solution autoclaved at 121° C. for 20 minutes; FIG. 9
Protocol: The modified peptide 1 was dissolved in a sodium carbonate solution to prepare a 0.5 w/v % peptide aqueous solution (final concentration of sodium carbonate: 2.75 mM). The peptide aqueous solution was subjected to sterilization treatment at 121° C. for 20 minutes using an autoclave apparatus (product number “MLS 3020” manufactured by SANYO Electric Co., Ltd.) to afford a peptide gel. The gel and a cell suspension obtained by suspending mouse NIH3T3 cells in a DMEM medium were uniformly mixed with each other at a volume ratio of 2:1 (gel:cell suspension) by pipetting. […] Cell growth rates were measured using a trade name “Cell Counting Kit 8” (manufactured by DOJINDO LABORATORIES) on Day 0 (Hour 2), Day 1, Day 3, and Day 5 after the start of culture.
A specific procedure for the measurement of the cell growth rates described above is as described below. […] After the incubation, 100 μL of the medium permeating the gel in the Cell Culture Insert were transferred to a well of a 96-well plate, and the absorbance of the medium at 450 nm was measured using a plate reader. Cell growth rates in the respective culture days were determined with the absorbance of a sample on Day 0 after the start of culture defined as 100.

Row | Substance | cell growth rate (mouse myoblasts (L6); Day 1 after start of culture) [%] | cell growth rate (mouse myoblasts (L6); Day 2 after start of culture) [%] | cell growth rate (mouse myoblasts (L6); Day 4 after start of culture) [%] | cell growth rates (mouse NIH3T3 cells)
1 | [CH3CO]-RLDLRLLLRLDLR-[NH2] (Ac-RLDLRLLLRLDLR-NH2) [modified peptide 2] | 140 | 160 | 250 | –
2 | [CH3CO]-RLDLRLALRLDLR-[NH2] (Ac-RLDLRLALRLDLR-NH2) [modified peptide 1] | 150 | 180 | 310 | increased in accordance with a lapse of culture days
